Measured values as given in patent US20120148595A1, “GABA-LINKED ANTHRACYCLINE-LIPID CONJUGATES” (Luitpold Pharmaceuticals, Inc., priority 2009, published 2012).
In brackets after ≈: the same amount, converted by molar mass. Several values for one entry are separate records, joined by “and”; a condition that tells them apart may be missing. Identical values can stand only once. Entries after “also recorded” stand apart in the source; their conditions may differ. Like-named read-outs stand apart in the source and are kept apart here.

What was measured:
[1] = tested on: MDA-MB-435 human breast tumor; assay: nude mouse xenograft model of the MDA-MB-435 human breast tumor; format: in vivo; settings: for Complete Regressions / Days Delay T-C / Drug-related Deaths: nude mouse
Procedure: (§1) The dosing schedule was Q3D×5.
In the nude mouse xenograft model of the MDA-MB-435 human breast tumor (Table 4), doxorubicin produced a T-C delay of 14 days at the approximate MTD dose of 6 mg/kg (1/10 drug-related deaths). In the same model, LOC-GABA-doxorubicin produced a T-C delay of 13 days at 50 mg/kg (6/10 drug-related deaths) and 1.5 days at 25 mg/kg (0 drug-related deaths).

HT-29 human colon tumor = assay: nude mouse xenograft model of the HT-29 human colon tumor; format: in vivo; settings: for Complete Regressions / Days Delay T-C / Drug-related Deaths: nude mouse
Procedure: as §1
In the nude mouse xenograft model of the HT-29 human colon tumor (Table 3), doxorubicin produced a T-C delay of 15.3 days at the MTD dose of 6 mg/kg, whereas P-367 (LOC-GABA-doxorubicin) produced a T-C delay of 32 days at 50 mg/kg and 22 at 25 mg/kg. Note that the activity of the lowest dose of LOC-GABA-doxorubicin is approximately equivalent to the highest, MTD of doxorubicin itself.

[2] = tested on: Madison 109 (M109) mouse lung carcinoma
Procedure: In all of the following in vivo experiments, the parent compound, doxorubicin, was injected intravenously (i.v.) in saline, while the fatty acid conjugates of doxorubicin were injected i.v. in 10% Cremophor® EL-P/10% ethanol/80% saline. The dosing schedule was Q3D×5.
T-C in this assay is defined as the time in days for the drug-treated tumors to double their mass three times subtracted […] to double their mass three times.

[3] = Toxicology: maximum tolerated dose, i.v. Q3D×5; settings: mouse, in vivo, iv, i.v. 5 times on a once every three day schedule
Excerpt: as §1

M109-Lung Tumor = M109-Lung Tumor Model (Table 5, second study with OOC-GABA-doxorubicin); format: in vivo, mouse
Excerpt: as §1

[4] = cited from earlier work
tumor growth = assay: anti-tumor activity of GABA-linked conjugate compared to the unconjugated anticancer agent (model not given); format: in vivo; settings: model not specified
Excerpt: The anti-tumor activity of LOC-GABA-doxorubicin was studied in three tumor models.

[5] = Solubility in solvents/excipients; format: physicochemical
Excerpt: Table 7 summarizes the solubility of LOC-GABA-doxorubicin in several solvents.

[6] = Stability in mouse serum/plasma at 37° C., HPLC; format: in vitro ADME
Procedure: […] Serum samples added with only ethanol/Cremophor® were used as controls.
Aliquots (100 μL) were taken from the spiked samples at 0, 1, 4, 8 and 24 h time intervals. Proteins were precipitated from the spiked solutions by the addition of 300 μL of acetonitrile. The suspensions were centrifuged and the supernatant transferred to separate microfuge tubes. The precipitate was washed twice with 300 μL of 90% acetonitrile. The wash solutions were combined with the supernatant and evaporated to dryness using a Centrivap Concentrator. The residue was then dissolved in 100 μL of methanol. Vortex mixing and sonication for 30 sec each were used to help dissolve the residue. The solution was then centrifuged at 10,000 rpm for 15 min. A 20 μL aliquot of the supernatant was analyzed by HPLC (Phenomenex column, C18, 250×4.6 mm, 5 u) using the following gradient conditions: […]
UV detection: 487 nm; column temperature: 40° C.; flow rate: 1 mL/min. Analytes were quantitated by comparison of peak areas from direct injections of standard solutions with those obtained from samples subjected to the extraction procedure. The percent recovery of spiked analytes was calculated by comparison of the sample peak areas before incubation (time: 0 h) with those subjected to incubation at 37° C. […]

## COc1cccc2c1C(=O)c1c(O)c3c(c(O)c1C2=O)C[C@@](O)(C(=O)CO)C[C@@H]3O[C@H]1C[C@H](N)[C@H](O)[C@H](C)O1 [Doxorubicin, reference compound]
[1]; 2 mg/kg i.v. Q3D×5
  Complete Regressions: 0
  Days Delay T-C: 0.0 days
  Drug-related Deaths: 0/5
[1]; 4 mg/kg i.v. Q3D×5
  Complete Regressions: 0
  Days Delay T-C: 6.6 days
  Drug-related Deaths: 0/5
[1]; 6 mg/kg i.v. Q3D×5
  Complete Regressions: 0
  Days Delay T-C: 14 days
  Drug-related Deaths: 1/10
HT-29 human colon tumor; 2 mg/kg i.v. Q3D×5
  Complete Regressions: 0
  Days Delay T-C: 2.2 days
  Drug-related Deaths: 0/10
HT-29 human colon tumor; 4 mg/kg i.v. Q3D×5
  Complete Regressions: 0
  Days Delay T-C: 4.0 days
  Drug-related Deaths: 0/10
HT-29 human colon tumor; 6 mg/kg i.v. Q3D×5
  Complete Regressions: 0
  Days Delay T-C: 5.7 days
  Drug-related Deaths: 0/10
HT-29 human colon tumor; 6 mg/kg i.v. Q3D×5, listed as doxorubicin
  Days Delay T-C: 15.3 days
[2]; 1 mg/kg i.v. Q3D×5
  Complete Regressions: 0
  Drug-related Deaths: 0/5
  Tumor Growth Delay T-C: 2.6 days
[2]; 2 mg/kg i.v. Q3D×5
  Complete Regressions: 0
  Drug-related Deaths: 0/5
  Tumor Growth Delay T-C: 2.2 days
[2]; 4 mg/kg i.v. Q3D×5
  Complete Regressions: 0
  Drug-related Deaths: 0/5
  Tumor Growth Delay T-C: 4.0 days
[2]; 6 mg/kg i.v. Q3D×5
  Complete Regressions: 0
[2]; 6 mg/kg i.v. Q3D×5, time for tumors to double their mass three times, treated vs vehicle
  Tumor Growth Delay T-C: 5.7 days
[2]; at any dose
  complete responses: no complete responses
[3]
  MTD: 6 mg/kg
[3]; nude
  MTD: ~6 mg/kg
M109-Lung Tumor; 2 mg/kg i.v. Q3D×5
  Complete Regressions: 0
  Days Delay T-C: 0.0 days
  Drug-related Deaths: 0/5
M109-Lung Tumor; 4 mg/kg i.v. Q3D×5
  Complete Regressions: 0
  Days Delay T-C: 1.4 days
  Drug-related Deaths: 0/5
M109-Lung Tumor; 6 mg/kg i.v. Q3D×5
  Complete Regressions: 0
  Days Delay T-C: 0.9 days
  Drug-related Deaths: 0/5
M109-Lung Tumor; 8 mg/kg i.v. Q3D×5
  Complete Regressions: 0
  Days Delay T-C: 4.6 days
  Drug-related Deaths: 0/5
[4]; cumulative dose 550 mg/m^2
  incidence of cardiomyopathy: 7%
[4]; cumulative dose 600 mg/m^2
  incidence of cardiomyopathy: 15%
[4]; cumulative dose 700 mg/m^2
  incidence of cardiomyopathy: 30%

## CCCCCCCC/C=C\CCCCCCCCOC(=O)NCCCC(=O)N[C@H]1C[C@H](O[C@H]2C[C@](O)(C(=O)CO)Cc3c(O)c4c(c(O)c32)C(=O)c2c(OC)cccc2C4=O)O[C@@H](C)[C@H]1O [OOC-GABA-doxorubicin, oleyl alcohol-GABA-doxorubicin]
M109-Lung Tumor; 50 mg/kg i.v. Q3D×5
  Complete Regressions: 0
  Days Delay T-C: 10.0 days
  Drug-related Deaths: 0/5
M109-Lung Tumor; 75 mg/kg i.v. Q3D×5
  Complete Regressions: 0
  Days Delay T-C: 8.9 days
  Drug-related Deaths: 0/5
M109-Lung Tumor; 100 mg/kg i.v. Q3D×5
  Complete Regressions: 0
  Days Delay T-C: 10.3 days
  Drug-related Deaths: 1/5
M109-Lung Tumor; 125 mg/kg i.v. Q3D×5
  Complete Regressions: 0
  Drug-related Deaths: 3/5
M109-Lung Tumor; M109 mouse lung carcinoma model
  anti-tumor activity compared to doxorubicin: superior anti-tumor activity

## CCC=CCC=CCC=CCC=CCC=CCC=CCCC(=O)NCCCC(=O)OC(C(=O)OC1CC2(O)C(OC(=O)c3ccccc3)C3C4(OC(C)=O)COC4CC(O)C3(C)C(=O)C(OC(C)=O)C(=C1C)C2(C)C)C(NC(=O)c1ccccc1)c1ccccc1 (centres unmarked)
Tumor growth
  anti-tumor activity compared to the unconjugated drug: superior activity in inhibiting tumor growth

## CCCCC/C=C\C/C=C\CCCCCCCCOC(=O)NCCCC(=O)N[C@H]1C[C@H](O[C@H]2C[C@](O)(C(=O)CO)Cc3c(O)c4c(c(O)c32)C(=O)c2c(OC)cccc2C4=O)O[C@@H](C)[C@H]1O [LOC-GABA-doxorubicin, linoleyl alcohol-GABA-doxorubicin]
[1]; 12.5 mg/kg i.v. Q3D×5
  Complete Regressions: 0
  Days Delay T-C: -2.0 days
  Drug-related Deaths: 0/10
[1]; 25 mg/kg i.v. Q3D×5
  Complete Regressions: 0
  Days Delay T-C: 1.5 days
  Drug-related Deaths: 0 and 0/10
[1]; 50 mg/kg i.v. Q3D×5
  Complete Regressions: 0
  Days Delay T-C: 13 days
  Drug-related Deaths: 6/10
[1]; 75 mg/kg i.v. Q3D×5
  Complete Regressions: 0
  Days Delay T-C: 21 days
  Drug-related Deaths: 9/10
[1]; MDA-MB-435 human breast carcinoma xenograft
  anti-tumor activity compared to doxorubicin: active, but somewhat less active than doxorubicin and somewhat less efficacious than doxorubicin and not
HT-29 human colon tumor; 12.5 mg/kg i.v. Q3D×5
  Complete Regressions: 0
  Days Delay T-C: 5.4 days
  Drug-related Deaths: 0/10
HT-29 human colon tumor; 25 mg/kg i.v. Q3D×5
  Complete Regressions: 0
  Days Delay T-C: 22 days
  Drug-related Deaths: 0/10
HT-29 human colon tumor; 50 mg/kg i.v. Q3D×5
  Complete Regressions: 0
  Days Delay T-C: 32 days
  Drug-related Deaths: 0/10
HT-29 human colon tumor; 75 mg/kg i.v. Q3D×5
  Complete Regressions: 0
  Days Delay T-C: 34 days
  Drug-related Deaths: 6/10
HT-29 human colon tumor; HT29 human colon carcinoma xenograft
  anti-tumor activity compared to doxorubicin: activity superior to doxorubicin; also recorded: superior anti-tumor activity
[2]; 50 mg/kg i.v. Q3D×5
  Drug-related Deaths: 0/5
  Tumor Growth Delay T-C: 28 days
[2]; 75 mg/kg i.v. Q3D×5
  Complete Regressions: 0
  Drug-related Deaths: 0/5
  Tumor Growth Delay T-C: 25 days
[2]; 100 mg/kg i.v. Q3D×5
  Complete Regressions: 0
  Drug-related Deaths: 4/5
[2]; 150 mg/kg i.v. Q3D×5
  Complete Regressions: 0
  Drug-related Deaths: 4/5
[3]
  MTD: 50 to 75 mg/kg
[5]; aqueous with cosolvent or surfactant or cyclodextrin, Cremophor ® EL-P:ethanol:saline (10:10:80)
  solubility: 16.8 mg/mL (≈ 18.2 mM)
[5]; dimethyl isosorbide (DMI), organic solvent or mixture
  solubility: 490 mg/mL (≈ 533 mM)
[5]; ethanol, organic solvent or mixture
  solubility: 252 mg/mL (≈ 274 mM)
M109-Lung Tumor; 35 mg/kg i.v. Q3D×5
  Complete Regressions: 0
  Days Delay T-C: 1.1 days
  Drug-related Deaths: 0/5
M109-Lung Tumor; 50 mg/kg i.v. Q3D×5
  Complete Regressions: 0
  Days Delay T-C: 5.2 days
  Drug-related Deaths: 0/5
M109-Lung Tumor; 65 mg/kg i.v. Q3D×5
  Complete Regressions: 0
  Days Delay T-C: 9.3 days
  Drug-related Deaths: 0/5
M109-Lung Tumor; 80 mg/kg i.v. Q3D×5
  Complete Regressions: 0
  Days Delay T-C: 9.5 days
  Drug-related Deaths: 0/5
Tumor growth
  anti-tumor activity compared to the unconjugated drug: superior
[6]; 10 mg/mL formulation pH 7.5, 10 parts to 90 parts plasma
  time stable in mouse plasma: more than 8 hours
[6]; mouse plasma, 24 hours
  drug still present: over 90%

## CC/C=C\C/C=C\C/C=C\C/C=C\C/C=C\C/C=C\CCC(=O)NCCCC(=O)O[C@H]1C[C@H]2OC[C@@]2(OC(C)=O)[C@H]2[C@H](OC(=O)c3ccccc3)[C@]3(O)C[C@H](OC(=O)[C@H](O)[C@@H](NC(=O)c4ccccc4)c4ccccc4)C(C)=C([C@@H](OC(C)=O)C(=O)[C@]12C)C3(C)C
Tumor growth
  anti-tumor activity compared to the unconjugated drug: did not show superior anti-tumor activity
